Experimental data as given in ChEMBL document CHEMBL4017441, “Mitigating the inhibition of human bile salt export pump by drugs: opportunities provided by physicochemical property modulation, in silico modeling, and structural modification” (Drug Metab Dispos, 2012).

Target: Bile salt export pump (Homo sapiens, UniProt O95342)
Format: ADME

Molecule | IC50 [µM]
CCN(CC)CCOC(=O)c1ccc(N)cc1 [PROCAINE] | > 1000
CC(CN(C)C)CN1c2ccccc2Sc2ccccc21 (configuration not stated) [METHYLPROMAZINE] | 73.7
Cc1cccc(N(C)C(=S)Oc2ccc3ccccc3c2)c1 [TOLNAFTATE] | < 10.3
CCC(=O)NCC[C@@H]1CCc2ccc3c(c21)CCO3 [RAMELTEON] | 85 to 85.4
CNC(=O)c1cc(Oc2ccc(NC(=O)Nc3ccc(Cl)c(C(F)(F)F)c3)cc2)ccn1 [SORAFENIB] | < 10
C[C@]12CCC(=O)C=C1CC[C@@H]1[C@@H]2C(=O)C[C@@]2(C)[C@H]1CC[C@]2(O)C(=O)CO [CORTISONE] | 108
Nc1ccc(S(=O)(=O)Nc2ccc(Cl)nn2)cc1 [SULFACHLORPYRIDAZINE] | > 1000
c1ccc2c(CC3=NCCN3)cccc2c1 [NAPHAZOLINE] | > 1000
Cc1cc(C(C)(C)C)cc(C)c1CC1=NCCN1 [XYLOMETAZOLINE] | > 796
IVERMECTIN | < 10
CCCc1c2nc(C(=O)O)cc(Cl)c2cc2c(=O)cc(C(=O)O)oc12 | > 892
C/C(=N\OC(C)(C)C(=O)O)c1csc(N)n1 | > 1000
Cc1ccc(CCCN[C@H](C)CO)cc1C(=O)NCC12CC3CC(CC(C3)C1)C2 | 65.6
CCCN1CCCC[C@H]1C(=O)Nc1c(C)cccc1C [ROPIVACAINE] | 646
CC(=O)NS(=O)(=O)c1ccc(N)cc1 [SULFACETAMIDE] | > 1000
C=CCN1CC[C@]23c4c5ccc(O)c4O[C@H]2C(=O)CC[C@@]3(O)[C@H]1C5 [NALOXONE] | 549
CCCCCCCC/C=C/CCCCCCCC(=O)OCC(COP(=O)(O)OCC[N+](C)(C)C)OC(=O)CCCCCCC/C=C/CCCCCCCC (configuration not stated) | < 16
CC(C)(CO)[C@@H](O)C(=O)NCCC(=O)O [PANTOTHENIC ACID] | > 1000
C[C@@H](COc1ccc(N2CCN(c3ccncc3)CC2)cc1)CC(=O)O | > 1000
CCCOc1ccc2nc(NC(=O)OC)[nH]c2c1 [OXIBENDAZOLE] | > 1000
CC(=O)NC[C@H]1CN(c2ccc(C(=O)c3cnc4ccc(Cl)cn34)cc2)C(=O)O1 | 27.6
CCN(CC)CCOc1ccc(C(=C(Cl)c2ccccc2)c2ccccc2)cc1 [CLOMIPHENE] | < 10
CC1COc2c(N3CCN(C)CC3)c(F)cc3c(=O)c(C(=O)O)cn1c23 (configuration not stated) [OFLOXACIN] | > 1000

Molecule | IC50 [µM]
CN(Cc1cc(Br)cc(Br)c1N)C1CCCCC1 [BROMHEXINE] | 20.3
C=CC1=C(C(=O)O)N2C(=O)[C@@H](NC(=O)/C(=N\OCC(=O)O)c3csc(N)n3)[C@H]2SC1 [CEFIXIME] | > 1000
C[C@H](Oc1ccc(C(F)(F)F)cc1-c1ccc(S(C)(=O)=O)c(C(F)(F)F)c1)C(=O)O | 35.8
O=S(=O)(CCOCCc1ccccc1)NCCNCCc1ccc(O)c2nc(O)sc12 | 35.7
CNCCCC1c2ccccc2C=Cc2ccccc21 [PROTRIPTYLINE] | 129
CO[C@H]1C[C@@H]2CC[C@@H](C)[C@@](O)(O2)C(=O)C(=O)N2CCCC[C@H]2C(=O)O[C@H]([C@H](C)C[C@@H]2CC[C@@H](O)[C@H](OC)C2)CC(=O)[C@H](C)/C=C(\C)[C@@H](O)[C@@H](OC)C(=O)[C@H](C)C[C@H](C)/C=C/C=C/C=C/1C [SIROLIMUS] | < 10
CCN1CCN(C(=O)N[C@@H](C(=O)N[C@@H]2C(=O)N3[C@@H]2SC(C)(C)[C@@H]3C(=O)O)c2ccccc2)C(=O)C1=O [PIPERACILLIN] | 197
C=CCOc1ccccc1OCC(O)CNC(C)C (configuration not stated) [OXPRENOLOL] | > 1000
O=C1OC(OC(=O)c2cccnc2Nc2cccc(C(F)(F)F)c2)c2ccccc21 (configuration not stated) [TALNIFLUMATE] | > 1000
Cc1noc(NS(=O)(=O)c2ccc(N)cc2)c1C [SULFISOXAZOLE] | > 1000
CC1(C)COC(=O)C1O (configuration not stated) | > 1000
CCOC(=O)C1=C(COCCN)NC(C)=C(C(=O)OC)C1c1ccccc1Cl (configuration not stated) [AMLODIPINE] | 16
NC(=O)c1ccccc1O [SALICYLAMIDE] | > 1000
C[C@H]1O[C@@H](O[C@H]2[C@@H](O)C[C@H](O[C@H]3[C@@H](O)C[C@H](O[C@H]4CC[C@@]5(C)[C@H](CC[C@@H]6[C@@H]5CC[C@]5(C)[C@@H](C7=CC(=O)OC7)CC[C@]65O)C4)O[C@@H]3C)O[C@@H]2C)C[C@H](O)[C@@H]1O [DIGITOXIN] | < 10
CCN(CC)CCNc1ccc(CO)c2sc3ccccc3c(=O)c12 [HYCANTHONE] | 29.8
CC(=O)[C@@]1(O)CC[C@H]2[C@@H]3C[C@H](C)C4=CC(=O)C=C[C@]4(C)[C@@]3(F)[C@@H](O)C[C@@]21C [FLUOROMETHOLONE] | 101
CCOC(=O)c1ncn2c1CN(C)C(=O)c1cc(F)ccc1-2 [FLUMAZENIL] | > 733
Cc1ccnc(NS(=O)(=O)c2ccc(N)cc2)n1 [SULFAMERAZINE] | > 1000
CC(=O)NC[C@H]1CN(c2ccc(N3CCOCC3)c(F)c2)C(=O)O1 [LINEZOLID] | > 1000
CC(CCc1ccccc1)NC(C)C(O)c1ccc(O)cc1 (configuration not stated) [NYLIDRIN] | 280
CCCCOCCOCCOCc1cc2c(cc1CCC)OCO2 [PIPERONYL BUTOXIDE] | < 10
COc1ccc(OC)c(C(O)C(C)N)c1 (configuration not stated) [METHOXAMINE] | > 1000
CC1Cc2ccccc2N1NC(=O)c1ccc(Cl)c(S(N)(=O)=O)c1 (configuration not stated) [INDAPAMIDE] | 145

Molecule | IC50 [µM]
CC(=O)O[C@H]1C[C@@]2(C)[C@@H](C[C@@H](O)[C@H]3[C@@]4(C)CC[C@@H](O)[C@@H](C)[C@@H]4CC[C@@]32C)/C1=C(\CCC=C(C)C)C(=O)O [FUSIDATE SODIUM] | < 10
N=C(N)NC(=O)c1nc(Cl)c(N)nc1N [AMILORIDE] | > 1000
Fc1ccc(C(c2ccc(F)cc2)N2CCN(C/C=C/c3ccccc3)CC2)cc1 [FLUNARIZINE] | < 10
O=C(NCC12CC3CC(CC(C3)C1)C2)c1cc(CN2CCNCC2)ccc1Cl | 124
O=C(O)c1ccc(NC(=O)[C@H](Cc2ccc(O)cc2)NC(=O)c2ccccc2)cc1 [BENTIROMIDE] | 235
COc1ccccc1Oc1c(NS(=O)(=O)c2ccc(C(C)(C)C)cc2)nc(-c2ncccn2)nc1OCCO [BOSENTAN] | < 25.3
COc1ccc(-c2cc(C(F)F)nn2-c2ccc(S(N)(=O)=O)cc2)cc1F [DERACOXIB] | 20.2
CCC(COC(=O)c1cc(OC)c(OC)c(OC)c1)(c1ccccc1)N(C)C (configuration not stated) [TRIMEBUTINE] | < 10
CNCCCN1c2ccccc2CCc2ccccc21 [DESIPRAMINE] | 150
O=c1oc2ccccc2c(O)c1Cc1c(O)c2ccccc2oc1=O [DICUMAROL] | 39.9
CNC[C@H](O)Cc1ccc(Cl)c(C(=O)NCC23CC4CC(CC(C4)C2)C3)c1 | 133
O=C(O)Cc1ccccc1Nc1c(Cl)cccc1Cl [DICLOFENAC] | 65
O=CN(O)C(CCc1ncccn1)CS(=O)(=O)N1CCN(c2ccc(Cl)cn2)CC1 (configuration not stated) | < 10
CC(C[N+](C)(C)C)OC(N)=O (configuration not stated) [BETHANECHOL] | > 1000
CCN(CC)C(C)CN1c2ccccc2Sc2ccccc21 (configuration not stated) [ETHOPROPAZINE] | 139
CCN(CC)CCCC(C)Nc1c2ccc(Cl)cc2nc2ccc(OC)cc12 (configuration not stated) [QUINACRINE] | 101
CCn1ccnc1CC1COc2ccccc2O1 (configuration not stated) [IMILOXAN] | 61.7
CC(C)[N+](C)(CCOC(=O)C1c2ccccc2Oc2ccccc21)C(C)C [PROPANTHELINE BROMIDE] | 291
CO[C@H]1/C=C/O[C@@]2(C)Oc3c(C)c(O)c4c(O)c(c(/C=N/N5CCN(C)CC5)c(O)c4c3C2=O)NC(=O)/C(C)=C\C=C\[C@H](C)[C@H](O)[C@@H](C)[C@@H](O)[C@H](C)[C@H](OC(C)=O)[C@H]1C | < 10
OC[C@@H](O)[C@@H](O[C@@H]1O[C@H](CO)[C@H](O)[C@H](O)[C@H]1O)[C@H](O)[C@@H](O)CO [LACTITOL] | > 1000
O=CN(O)C(CCc1ccccc1)CS(=O)(=O)N1CCN(c2ccc(F)cc2)CC1 (configuration not stated) | < 10
CN1C(=O)CC(c2ccccc2)C1=O (configuration not stated) [PHENSUXIMIDE] | > 1000
O=C(O)c1ccc(OCCn2ccnc2)cc1 [DAZOXIBEN] | > 1000

Molecule | IC50 [µM]
Cc1cc2c(OCC(O)CNC(C)C)cccc2[nH]1 (configuration not stated) [MEPINDOLOL] | 35.9 to 36
Cc1cccc(C)c1NC(=O)[C@H]1CCCCN1C | > 1000
Nc1ccc(CN2C(=O)C(Nc3ccc(N4CCOCC4)cc3)=C(c3ccccc3)C2=O)cn1 | < 10
COc1cc(NC(C)CCCN)c2ncccc2c1 (configuration not stated) [PRIMAQUINE] | 53.1
CCCc1c2c(cc3c(=O)cc(C(=O)O)oc13)CCCC2 [PROCROMIL] | 606
C[C@@H]1C[C@H]2[C@@H]3CCC4=CC(=O)C=C[C@]4(C)[C@@]3(F)[C@@H](O)C[C@]2(C)[C@@]1(O)C(=O)CO [DEXAMETHASONE] | 102
O=C1CCC(N2C(=O)c3ccccc3C2=O)C(=O)N1 (configuration not stated) [THALIDOMIDE] | > 1000
CC(C)(CO)[C@@H](O)C(=O)NCCCO [DEXPANTHENOL] | > 1000
CC(=O)Nc1ccccc1OC[C@@](C)(O)CNC1CCN(Cc2ccc(Cl)cc2)CC1 | 71.5
C[C@@H]1O[C@@H](O[C@H]2C[C@@H](O)[C@]3(CO)[C@H]4[C@H](O)C[C@]5(C)[C@@H](C6=CC(=O)OC6)CC[C@]5(O)[C@@H]4CC[C@]3(O)C2)[C@H](O)[C@H](O)[C@H]1O [OUABAIN] | > 1000
Cc1onc(-c2c(Cl)cccc2Cl)c1C(=O)N[C@@H]1C(=O)N2[C@@H]1SC(C)(C)[C@@H]2C(=O)O [DICLOXACILLIN] | < 10
O=C(O)CCCCCCCNC(=O)c1ccccc1O [SALCAPROZIC ACID] | > 751
C[N+](C)(C)CC(=O)O [BETAINE] | > 1000
C=CC1CN2CCC1CC2C(O)c1ccnc2ccccc12 (configuration not stated) | > 1000
CCOC(=O)c1cncn1[C@H](C)c1ccccc1 [ETOMIDATE] | 61.6
CCC1C(=O)OCC1Cc1cncn1C (configuration not stated) | > 1000
CC(=O)Oc1ccc2c(c1)cc(C(=O)O)n2Cc1ccc(Cl)c(Cl)c1 | 55.2
CCS(=O)(=O)c1ccc(-c2cc(Cl)ccc2OCC(=O)O)c(F)c1 | 168
CC(C)C(=O)N[C@@H](CS)C(=O)O | > 1000
COc1ccc2c(c1)N(C[C@H](C)CN(C)C)c1ccccc1S2 [LEVOMEPROMAZINE] | 127
Nc1ncnc2nc[nH]c12 [ADENINE] | > 1000
COc1ccc(-n2[nH]c(=O)c3[nH]c4cc(Cl)ccc4c(=O)c3c2=O)c(C)c1 | 490
CN1CCc2cccc3c2[C@H]1Cc1ccc(O)c(O)c1-3 (stereo in doubt; form 2) [APOMORPHINE] | 391
